Measured values taken from US11464770B2, “Anticancer pharmaceutical composition” (NATIONAL CANCER CENTER, priority 2016, dated 2022).
pIC50: −log10 of the molar value. Read-outs that look alike come from different tables or passages of the source.

System: lung cancer cell lines (e.g. NCI-H23, NCI-H1229)
Assay: Cell based assay, cell viability (CellTiter-Glo), lung cancer cell lines
Details: Homo sapiens, 72 hours treatment, CellTiter-Glo
How it was run: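 Following a 24 h pre-culture in plates, cells receive test compound (final 0 to 2 μM) for 72 hours. Luminescent quantitation of cellular ATP gives viability.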

[1] = A549 cells, read-out: IC50, lung cancer cell line A549
[2] = DMS 114 cells, read-out: IC50, lung cancer cell line DMS 114
[3] = NCI-H23 cells, read-out: IC50, lung cancer cell line NCI-H23
[4] = NCI-H460 cells, read-out: IC50, lung cancer cell line NCI-H460
[5] = NCI-H522 cells, read-out: IC50, lung cancer cell line NCI-H522
[6] = NCI-H1299 cells, read-out: IC50, lung cancer cell line NCI-H1299
[7] = NCI-H1437 cells, read-out: IC50, lung cancer cell line NCI-H1437

Structure (SMILES) | pIC50 [1] | pIC50 [2] | pIC50 (MRC-5 cells, read-out: IC50) | pIC50 [3] | pIC50 [4] | pIC50 [5] | pIC50 [6] | pIC50 [7]
CC(=O)c1c([S+]([O-])Cc2ccc(F)cc2F)[nH]c2c(Br)ccc(Cl)c2c1=O (stereo not shown) [Compound 29, 3-acetyl-8-bromo-5-chloro-2-((2,4-difluorobenzyl)sulfinyl)quinolin-4(1H)-one] | < 5.70 | < 5.70 | < 5.70 | 6.04 | 5.75 | < 5.70 | 5.85 | < 5.00
CC(=O)c1c([S+]([O-])Cc2ccc(F)c(Cl)c2)[nH]c2c(Br)ccc(Cl)c2c1=O (stereo not shown) [Compound 31, 3-acetyl-8-bromo-5-chloro-2-((3-chloro-4-fluorobenzyl)sulfinyl)quinolin-4(1H)-one] | 5.76 | < 5.70 | < 5.70 | 6.09 | 5.85 | < 5.70 | 5.91 | < 5.00
CC(=O)c1c([S+]([O-])Cc2ccc([N+](=O)[O-])cc2)[nH]c2c(Br)ccc(Cl)c2c1=O (stereo not shown) [Compound 33, 3-acetyl-8-bromo-5-chloro-2-((4-nitrobenzyl)sulfinyl)quinolin-4(1H)-one] | < 5.70 | < 5.70 | 6.09 | 6.07 | 5.75 | < 5.70 | 5.86 | < 5.00
CC(=O)c1c(S(=O)(=O)Cc2ccccc2)[nH]c2c(Br)ccc(Cl)c2c1=O [Compound 34, 3-acetyl-2-(benzylsulfonyl)-8-bromo-5-chloroquinolin-4(1H)-one] | < 5.70 | < 5.70 | < 5.70 | 5.86 | < 5.70 | < 5.70 | 5.70 | < 5.00
CC(=O)c1c([S+]([O-])Cc2cc(Cl)ccc2Cl)[nH]c2c(Br)ccc(Cl)c2c1=O (stereo not shown) [Compound 44, 3-acetyl-8-bromo-5-chloro-2-((2,5-dichlorobenzyl)sulfinyl)quinolin-4(1H)-one] | 5.73 | < 5.70 | 6.02 | 6.02 | 5.76 | < 5.70 | 5.89 | < 5.00
CC(=O)c1c([S+]([O-])Cc2cc(F)cc(F)c2)[nH]c2c(Br)ccc(Cl)c2c1=O (stereo not shown) [Compound 46, 3-acetyl-8-bromo-5-chloro-2-((3,5-difluorobenzyl)sulfinyl)quinolin-4(1H)-one] | < 5.70 | < 5.70 | < 5.70 | 5.90 | < 5.70 | < 5.70 | 5.73 | < 5.00
CC(=O)c1c([S+]([O-])Cc2cccc(F)c2)[nH]c2c(Br)ccc(Cl)c2c1=O (stereo not shown) [Compound 50, 3-acetyl-8-bromo-5-chloro-2-((3-fluorobenzyl)sulfinyl)quinolin-4(1H)-one] | < 5.70 | < 5.70 | < 5.70 | 5.94 | < 5.70 | < 5.70 | 5.71 | < 5.00
CC(=O)c1c([S+]([O-])Cc2cc(C)on2)[nH]c2c(Br)ccc(Cl)c2c1=O (stereo not shown) [Compound 51, 3-acetyl-8-bromo-5-chloro-2-(((5-methylisoxazol-3-yl)methyl)sulfinyl)quinolin-4(1H)-one] | < 5.70 | < 5.70 | 6.24 | 6.11 | 5.79 | 5.76 | – | < 5.00
COc1cccc(C[S+]([O-])c2[nH]c3c(Br)ccc(Cl)c3c(=O)c2C(C)=O)c1 (stereo not shown) [Compound 55, 3-acetyl-8-bromo-5-chloro-2-((3-methoxybenzyl)sulfinyl)quinolin-4(1H)-one] | < 5.70 | < 5.70 | < 5.70 | 5.89 | < 5.70 | < 5.70 | < 5.70 | < 5.00
CC(=O)c1c([S+]([O-])Cc2ccc(SC(F)(F)F)cc2)[nH]c2c(Br)ccc(Cl)c2c1=O (stereo not shown) [Compound 56, 3-acetyl-8-bromo-5-chloro-2-((4-((trifluoromethyl)thio)benzyl)sulfinyl)quinolin-4(1H)-one] | 5.77 | < 5.70 | 5.91 | 5.98 | 5.72 | < 5.70 | < 5.70 | < 5.00
CC(=O)c1c([S+]([O-])Cc2ccc([N+](=O)[O-])cc2)[nH]c2c(Cl)ccc(Cl)c2c1=O (stereo not shown) [Compound 57, 3-acetyl-5,8-dichloro-2-((4-nitrobenzyl)sulfinyl)quinolin-4(1H)-one] | < 5.70 | < 5.70 | < 5.70 | 5.74 | < 5.70 | < 5.70 | < 5.70 | < 5.00
COc1cc(C[S+]([O-])c2[nH]c3c(Br)ccc(Cl)c3c(=O)c2C(C)=O)cc(OC)c1 (stereo not shown) [Compound 59, 3-acetyl-8-bromo-5-chloro-2-((3,5-dimethoxybenzyl)sulfinyl)quinolin-4(1H)-one] | < 5.70 | < 5.70 | 5.99 | 6.04 | 5.74 | < 5.70 | 5.84 | < 5.00
CC(=O)c1c([S+]([O-])Cc2ccc(C(C)(C)C)cc2)[nH]c2c(Br)ccc(Cl)c2c1=O (stereo not shown) [Compound 60, 3-acetyl-8-bromo-2-((4-(tert-butyl)benzyl)sulfinyl)-5-chloroquinolin-4(1H)-one] | < 5.70 | < 5.70 | < 5.70 | 5.86 | < 5.70 | < 5.70 | < 5.70 | < 5.00
CC(=O)c1c([S+]([O-])Cc2ccc([S+]([O-])C(F)(F)F)cc2)[nH]c2c(Br)ccc(Cl)c2c1=O (stereo not shown) [Compound 64, 3-acetyl-8-bromo-5-chloro-2-((4-((trifluoromethyl)sulfinyl)benzyl)sulfinyl)quinolin-4(1H)-one] | < 5.70 | < 5.70 | < 5.70 | 6.01 | < 5.70 | < 5.70 | 5.87 | < 5.00
CC(=O)c1c([S+]([O-])Cc2ccc(C(F)(F)F)cc2)[nH]c2c(Br)ccc(Cl)c2c1=O (stereo not shown) [Compound 70, 3-acetyl-8-bromo-5-chloro-2-((4-(trifluoromethyl)benzyl)sulfinyl)quinolin-4(1H)-one] | 5.70 | < 5.70 | 6.00 | 5.99 | 5.79 | < 5.70 | 5.83 | < 5.00
CC(=O)c1c([S+]([O-])Cc2ccc(OC(F)(F)F)cc2)[nH]c2c(Br)ccc(Cl)c2c1=O (stereo not shown) [Compound 71, 3-acetyl-8-bromo-5-chloro-2-((4-(trifluoromethoxy)benzyl)sulfinyl)quinolin-4(1H)-one] | 5.75 | < 5.70 | < 5.70 | 5.84 | < 5.70 | < 5.70 | 5.79 | < 5.00
CC(=O)c1c([S+]([O-])Cc2ccc(C(F)(F)F)o2)[nH]c2c(Br)ccc(Cl)c2c1=O (stereo not shown) [Compound 72, 3-acetyl-8-bromo-5-chloro-2-(((5-(trifluoromethyl)furan-2-yl)methyl)sulfinyl)quinolin-4(1H)-one] | 5.75 | 5.71 | 6.14 | 6.15 | 5.81 | < 5.70 | 5.92 | < 5.00
CC(=O)c1c([S+]([O-])Cc2ccc(C#N)cc2)[nH]c2c(Br)ccc(Cl)c2c1=O (stereo not shown) [Compound 73, 4-(((3-acetyl-8-bromo-5-chloro-4-oxo-1,4-dihydroquinolin-2-yl)sulfinyl)methyl)benzonitrile] | < 5.70 | < 5.70 | < 5.70 | 5.82 | < 5.70 | < 5.70 | < 5.70 | < 5.00
CC(=O)c1c([S+]([O-])Cc2c(F)cccc2Cl)[nH]c2c(Br)ccc(Cl)c2c1=O (stereo not shown) [Compound 74, 3-acetyl-8-bromo-5-chloro-2-((2-chloro-6-fluorobenzyl)sulfinyl)quinolin-4(1H)-one] | < 5.70 | < 5.70 | < 5.70 | 5.97 | < 5.70 | < 5.70 | 5.85 | < 5.00
COc1cc(S(F)(F)(F)(F)F)ccc1C[S+]([O-])c1[nH]c2c(Br)ccc(Cl)c2c(=O)c1C(C)=O (stereo not shown) [Compound 75, 3-acetyl-8-bromo-5-chloro-2-((2-methoxy-4-(pentafluoro--sulfanyl)benzyl)sulfinyl)quinolin-4(1H)-one] | 5.77 | < 5.70 | 5.96 | 5.92 | 5.76 | < 5.70 | 5.97 | < 5.00
CC(=O)c1c([S+]([O-])Cc2cc(F)cc(S(F)(F)(F)(F)F)c2)[nH]c2c(Br)ccc(Cl)c2c1=O (stereo not shown) [Compound 76, 3-acetyl-8-bromo-5-chloro-2-((3-fluoro-5-(pentafluoro--sulfanyl)benzyl)sulfinyl)quinolin-4(1H)-one] | < 5.70 | < 5.70 | 5.80 | 5.91 | < 5.70 | < 5.70 | 5.78 | < 5.00
CC(=O)c1c([S+]([O-])Cc2c(F)c(F)c(F)c(F)c2F)[nH]c2c(Br)ccc(Cl)c2c1=O (stereo not shown) [Compound 78, 3-acetyl-8-bromo-5-chloro-2-(((perfluorophenyl)methyl)sulfinyl)quinolin-4(1H)-one] | < 5.70 | < 5.70 | 5.82 | 5.87 | < 5.70 | < 5.70 | 5.74 | < 5.00
CC(=O)c1c([S+]([O-])Cc2ccc(I)cc2)[nH]c2c(Cl)ccc(Cl)c2c1=O (stereo not shown) [Compound 83, 3-acetyl-5,8-dichloro-2-((4-iodobenzyl)sulfinyl)quinolin-4(1H)-one] | < 5.70 | < 5.70 | 5.76 | 5.90 | 5.81 | < 5.70 | 5.84 | < 5.00
CC(=O)c1c([S+]([O-])Cc2cccnc2)[nH]c2c(Br)ccc(Cl)c2c1=O (stereo not shown) [Compound 84, 3-acetyl-8-bromo-5-chloro-2-((pyridin-3-ylmethyl)sulfinyl)quinolin-4(1H)-one] | < 5.70 | < 5.70 | 5.89 | 6.07 | 5.83 | 5.87 | 5.98 | < 5.00
Cc1cc(C[S+]([O-])c2[nH]c3c(Cl)ccc(Cl)c3c(=O)c2C(=O)C(C)C)no1 (stereo not shown) [Compound 86, 5,8-dichloro-3-isobutyryl-2-(((5-methylisoxazol-3-yl)methyl)sulfinyl)quinolin-4(1H)-one] | 5.92 | < 5.70 | 5.95 | 6.15 | 5.83 | 5.96 | 5.91 | > 5.70
